Source: article PMC8053042 (Cell chemical biology, 2020)

Biological target: T1, Doublecortin-like kinase 1 (DCLK1) (Homo sapiens, UniProt O15075)
T1 sequence (O15075 390-647 limits assumed): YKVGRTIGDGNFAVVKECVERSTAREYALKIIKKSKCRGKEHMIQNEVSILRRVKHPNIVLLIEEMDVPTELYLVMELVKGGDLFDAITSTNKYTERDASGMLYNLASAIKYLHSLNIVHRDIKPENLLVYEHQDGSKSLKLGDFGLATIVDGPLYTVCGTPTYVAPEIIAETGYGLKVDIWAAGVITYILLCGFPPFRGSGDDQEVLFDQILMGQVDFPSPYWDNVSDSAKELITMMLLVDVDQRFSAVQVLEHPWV
Experiment: peptide substrate mobility shift kinase assay with purified DCLK1 WT
Type: biochemical

Compound: COc1cc(N2CCN(C)CC2)ccc1Nc1ncc2c(n1)N(C)c1ccccc1C(=O)N2CC(F)(F)F [DCLK1-IN-1]
- IC50: 0.055 µM
